The source of these data is ChEMBL document CHEMBL5291721, “A preclinical secondary pharmacology resource illuminates target-adverse drug reaction associations of marketed drugs” (Nat Commun, 2023).

Some targets named below: Glucagon receptor (Homo sapiens, UniProt P47871); D(1A) dopamine receptor (Homo sapiens, UniProt P21728); Substance-P receptor (Homo sapiens, UniProt P25103).
For assay [1], the target named is T1, Muscarinic acetylcholine receptor M1 (Homo sapiens, UniProt P11229).
T1 sequence (P11229 whole entry): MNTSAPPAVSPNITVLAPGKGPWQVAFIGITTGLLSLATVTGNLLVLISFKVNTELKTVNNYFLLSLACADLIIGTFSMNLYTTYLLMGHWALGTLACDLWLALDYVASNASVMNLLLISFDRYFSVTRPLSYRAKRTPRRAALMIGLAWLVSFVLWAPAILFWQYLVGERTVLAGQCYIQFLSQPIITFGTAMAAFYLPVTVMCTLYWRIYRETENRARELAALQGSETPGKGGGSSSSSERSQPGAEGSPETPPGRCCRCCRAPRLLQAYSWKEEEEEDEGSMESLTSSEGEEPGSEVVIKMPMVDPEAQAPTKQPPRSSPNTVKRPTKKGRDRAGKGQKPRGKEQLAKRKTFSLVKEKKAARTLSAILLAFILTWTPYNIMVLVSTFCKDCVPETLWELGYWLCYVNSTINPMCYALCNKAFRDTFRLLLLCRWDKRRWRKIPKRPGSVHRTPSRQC

Assay [2] has as its target Voltage-dependent N-type calcium channel subunit alpha-1B (Rattus norvegicus, UniProt Q02294). Format: functional.
The target in assay [3] is T2, Corticotropin-releasing factor receptor 1 (Homo sapiens, UniProt P34998).
T2 sequence (P34998 whole entry): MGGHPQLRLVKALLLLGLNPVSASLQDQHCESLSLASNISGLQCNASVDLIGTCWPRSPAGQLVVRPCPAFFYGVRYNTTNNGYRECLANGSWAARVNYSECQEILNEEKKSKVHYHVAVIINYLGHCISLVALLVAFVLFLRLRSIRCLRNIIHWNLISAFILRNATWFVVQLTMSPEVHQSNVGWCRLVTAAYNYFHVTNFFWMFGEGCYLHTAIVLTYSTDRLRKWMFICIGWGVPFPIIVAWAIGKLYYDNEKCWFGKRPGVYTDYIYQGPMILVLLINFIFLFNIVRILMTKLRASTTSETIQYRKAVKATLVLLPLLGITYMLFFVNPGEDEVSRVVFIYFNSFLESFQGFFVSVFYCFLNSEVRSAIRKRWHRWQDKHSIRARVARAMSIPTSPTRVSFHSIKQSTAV

Assay [4] deals with Neurotensin receptor type 1 (Homo sapiens, UniProt P30989).
In assay [5] the target is T3, Gastric inhibitory polypeptide receptor (Homo sapiens, UniProt P48546).
T3 sequence (P48546 whole entry): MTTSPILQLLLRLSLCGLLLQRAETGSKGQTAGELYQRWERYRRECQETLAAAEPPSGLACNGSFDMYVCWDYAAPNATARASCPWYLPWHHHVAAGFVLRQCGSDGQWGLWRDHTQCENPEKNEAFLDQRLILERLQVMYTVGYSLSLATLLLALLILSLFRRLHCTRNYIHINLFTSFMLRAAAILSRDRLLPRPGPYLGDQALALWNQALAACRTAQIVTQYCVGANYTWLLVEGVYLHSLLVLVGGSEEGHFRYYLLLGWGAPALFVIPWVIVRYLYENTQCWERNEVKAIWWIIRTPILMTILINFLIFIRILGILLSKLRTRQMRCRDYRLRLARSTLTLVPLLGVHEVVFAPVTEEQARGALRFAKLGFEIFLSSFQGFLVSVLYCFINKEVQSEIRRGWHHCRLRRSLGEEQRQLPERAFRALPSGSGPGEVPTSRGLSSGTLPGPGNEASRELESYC

The target of assay [6] is T4, Neuropeptide Y receptor type 2 (Homo sapiens, UniProt P49146).
T4 sequence (P49146 whole entry): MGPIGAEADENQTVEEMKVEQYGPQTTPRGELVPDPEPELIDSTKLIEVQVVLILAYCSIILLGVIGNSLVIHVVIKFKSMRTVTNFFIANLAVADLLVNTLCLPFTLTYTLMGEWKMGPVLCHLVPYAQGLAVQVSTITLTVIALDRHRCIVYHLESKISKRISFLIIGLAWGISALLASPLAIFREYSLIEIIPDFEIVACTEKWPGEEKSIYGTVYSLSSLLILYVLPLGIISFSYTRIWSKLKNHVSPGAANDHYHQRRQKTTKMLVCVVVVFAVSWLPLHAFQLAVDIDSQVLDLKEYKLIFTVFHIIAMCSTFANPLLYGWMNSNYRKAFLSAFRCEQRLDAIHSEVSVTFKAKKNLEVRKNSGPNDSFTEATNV

Assay [7] concerns the target T5, Endothelin receptor type B (Homo sapiens, UniProt P24530).
T5 sequence (P24530 whole entry): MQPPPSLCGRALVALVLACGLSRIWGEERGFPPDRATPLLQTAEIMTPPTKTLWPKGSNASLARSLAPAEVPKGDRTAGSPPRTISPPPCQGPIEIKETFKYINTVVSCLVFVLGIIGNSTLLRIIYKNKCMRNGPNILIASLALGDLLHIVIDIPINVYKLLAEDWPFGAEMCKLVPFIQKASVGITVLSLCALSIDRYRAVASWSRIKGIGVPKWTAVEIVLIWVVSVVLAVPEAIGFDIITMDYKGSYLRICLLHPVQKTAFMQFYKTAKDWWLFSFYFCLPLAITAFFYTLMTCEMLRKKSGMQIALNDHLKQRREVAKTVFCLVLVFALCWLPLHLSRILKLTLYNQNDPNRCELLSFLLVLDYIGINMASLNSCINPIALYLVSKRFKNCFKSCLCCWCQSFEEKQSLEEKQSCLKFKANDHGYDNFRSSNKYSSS
Note: assay procedure not described here.

Chain of Voltage-dependent N-type calcium channel subunit alpha-1B (Q02294 whole entry): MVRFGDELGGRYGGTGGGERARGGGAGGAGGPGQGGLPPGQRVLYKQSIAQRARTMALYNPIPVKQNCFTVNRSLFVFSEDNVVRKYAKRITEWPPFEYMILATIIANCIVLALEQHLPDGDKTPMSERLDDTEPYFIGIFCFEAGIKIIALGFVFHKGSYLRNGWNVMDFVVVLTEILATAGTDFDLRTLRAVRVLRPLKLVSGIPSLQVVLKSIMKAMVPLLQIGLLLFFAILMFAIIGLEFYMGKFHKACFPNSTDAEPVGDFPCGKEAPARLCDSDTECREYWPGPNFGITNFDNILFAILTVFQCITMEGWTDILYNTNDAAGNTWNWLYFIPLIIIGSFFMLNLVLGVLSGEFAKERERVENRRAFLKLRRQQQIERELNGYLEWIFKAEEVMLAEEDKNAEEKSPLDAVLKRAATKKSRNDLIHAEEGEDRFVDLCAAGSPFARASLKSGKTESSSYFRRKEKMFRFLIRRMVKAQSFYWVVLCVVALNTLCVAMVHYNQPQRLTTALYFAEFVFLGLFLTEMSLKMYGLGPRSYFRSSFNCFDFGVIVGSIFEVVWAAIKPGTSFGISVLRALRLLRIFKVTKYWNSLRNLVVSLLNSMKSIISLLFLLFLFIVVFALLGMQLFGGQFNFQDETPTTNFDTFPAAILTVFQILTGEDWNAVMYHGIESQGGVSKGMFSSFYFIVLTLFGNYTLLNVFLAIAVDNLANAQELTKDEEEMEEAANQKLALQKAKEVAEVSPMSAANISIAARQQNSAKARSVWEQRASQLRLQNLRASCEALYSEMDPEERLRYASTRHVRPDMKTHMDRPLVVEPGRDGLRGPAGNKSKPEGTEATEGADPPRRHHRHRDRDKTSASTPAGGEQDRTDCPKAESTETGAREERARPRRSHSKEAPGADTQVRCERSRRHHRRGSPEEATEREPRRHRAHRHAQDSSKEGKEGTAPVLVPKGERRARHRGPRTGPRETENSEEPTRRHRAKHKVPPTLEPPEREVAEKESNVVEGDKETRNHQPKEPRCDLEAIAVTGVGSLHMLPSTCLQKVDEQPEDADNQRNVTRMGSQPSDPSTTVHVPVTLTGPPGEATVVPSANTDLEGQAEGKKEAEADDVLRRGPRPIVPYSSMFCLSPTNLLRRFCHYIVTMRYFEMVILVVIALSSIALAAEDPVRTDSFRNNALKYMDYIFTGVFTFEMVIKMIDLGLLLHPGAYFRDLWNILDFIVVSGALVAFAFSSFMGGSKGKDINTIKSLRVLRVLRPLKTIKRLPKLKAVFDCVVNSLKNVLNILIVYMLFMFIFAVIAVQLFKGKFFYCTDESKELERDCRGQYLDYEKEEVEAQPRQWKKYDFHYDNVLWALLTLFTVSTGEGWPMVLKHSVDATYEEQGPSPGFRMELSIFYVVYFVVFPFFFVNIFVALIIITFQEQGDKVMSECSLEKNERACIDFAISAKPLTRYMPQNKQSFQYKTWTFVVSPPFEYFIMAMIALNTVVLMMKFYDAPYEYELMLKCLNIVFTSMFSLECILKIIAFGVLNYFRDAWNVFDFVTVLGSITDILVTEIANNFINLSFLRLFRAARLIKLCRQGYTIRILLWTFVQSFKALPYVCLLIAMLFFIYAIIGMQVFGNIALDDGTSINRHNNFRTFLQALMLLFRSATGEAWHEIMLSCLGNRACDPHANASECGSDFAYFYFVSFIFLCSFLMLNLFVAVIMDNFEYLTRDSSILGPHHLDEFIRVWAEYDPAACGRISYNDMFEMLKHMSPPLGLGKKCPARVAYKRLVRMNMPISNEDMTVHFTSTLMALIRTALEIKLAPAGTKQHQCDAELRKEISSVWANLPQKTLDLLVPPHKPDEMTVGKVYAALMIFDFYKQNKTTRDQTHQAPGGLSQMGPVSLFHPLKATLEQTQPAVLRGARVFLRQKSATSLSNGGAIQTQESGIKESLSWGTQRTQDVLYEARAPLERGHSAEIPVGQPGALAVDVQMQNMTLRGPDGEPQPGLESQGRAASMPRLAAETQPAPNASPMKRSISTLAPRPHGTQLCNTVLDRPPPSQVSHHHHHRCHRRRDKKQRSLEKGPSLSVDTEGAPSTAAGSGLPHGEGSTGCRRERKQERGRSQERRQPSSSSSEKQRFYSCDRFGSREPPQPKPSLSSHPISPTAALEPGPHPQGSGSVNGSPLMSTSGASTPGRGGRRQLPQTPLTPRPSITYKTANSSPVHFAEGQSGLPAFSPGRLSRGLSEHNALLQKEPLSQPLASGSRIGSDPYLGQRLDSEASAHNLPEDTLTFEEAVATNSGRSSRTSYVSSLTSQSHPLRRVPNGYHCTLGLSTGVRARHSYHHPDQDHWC
Chain of D(1A) dopamine receptor (P21728 whole entry): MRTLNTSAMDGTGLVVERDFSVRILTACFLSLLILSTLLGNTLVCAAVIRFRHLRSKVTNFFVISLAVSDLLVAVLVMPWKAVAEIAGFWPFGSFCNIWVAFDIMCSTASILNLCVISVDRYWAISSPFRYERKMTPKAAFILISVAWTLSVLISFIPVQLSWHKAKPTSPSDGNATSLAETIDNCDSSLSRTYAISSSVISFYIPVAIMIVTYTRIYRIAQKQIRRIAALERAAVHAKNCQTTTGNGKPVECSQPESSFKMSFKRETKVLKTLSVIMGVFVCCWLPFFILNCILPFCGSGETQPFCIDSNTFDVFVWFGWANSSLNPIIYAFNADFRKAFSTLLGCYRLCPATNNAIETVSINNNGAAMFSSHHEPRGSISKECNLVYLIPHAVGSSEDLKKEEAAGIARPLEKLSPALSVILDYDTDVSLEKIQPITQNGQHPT
Chain of Glucagon receptor (P47871 whole entry): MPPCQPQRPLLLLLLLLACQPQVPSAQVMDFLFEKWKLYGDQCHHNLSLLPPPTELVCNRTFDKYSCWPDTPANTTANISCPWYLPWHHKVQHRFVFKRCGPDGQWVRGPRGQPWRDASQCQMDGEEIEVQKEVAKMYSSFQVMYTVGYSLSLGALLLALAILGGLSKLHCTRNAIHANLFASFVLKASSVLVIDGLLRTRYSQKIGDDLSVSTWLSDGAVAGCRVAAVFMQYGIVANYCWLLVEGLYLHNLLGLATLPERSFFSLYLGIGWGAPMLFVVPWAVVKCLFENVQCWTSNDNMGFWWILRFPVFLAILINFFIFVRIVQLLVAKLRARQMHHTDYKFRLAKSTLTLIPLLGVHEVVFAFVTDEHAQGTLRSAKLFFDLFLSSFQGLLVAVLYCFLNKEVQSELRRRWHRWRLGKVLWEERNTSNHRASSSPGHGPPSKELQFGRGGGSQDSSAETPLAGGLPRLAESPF
Chain of Substance-P receptor (P25103 whole entry): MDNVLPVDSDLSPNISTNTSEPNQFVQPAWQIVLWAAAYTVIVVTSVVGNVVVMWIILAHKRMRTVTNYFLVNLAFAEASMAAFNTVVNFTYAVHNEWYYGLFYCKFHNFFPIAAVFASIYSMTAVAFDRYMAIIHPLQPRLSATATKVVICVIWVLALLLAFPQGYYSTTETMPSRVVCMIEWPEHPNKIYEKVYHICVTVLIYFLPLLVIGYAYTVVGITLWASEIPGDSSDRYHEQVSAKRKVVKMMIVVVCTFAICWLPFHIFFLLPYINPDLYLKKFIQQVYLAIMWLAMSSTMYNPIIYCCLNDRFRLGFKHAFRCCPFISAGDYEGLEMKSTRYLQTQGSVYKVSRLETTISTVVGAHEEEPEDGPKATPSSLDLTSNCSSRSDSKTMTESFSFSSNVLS
Chain of Neurotensin receptor type 1 (P30989 whole entry): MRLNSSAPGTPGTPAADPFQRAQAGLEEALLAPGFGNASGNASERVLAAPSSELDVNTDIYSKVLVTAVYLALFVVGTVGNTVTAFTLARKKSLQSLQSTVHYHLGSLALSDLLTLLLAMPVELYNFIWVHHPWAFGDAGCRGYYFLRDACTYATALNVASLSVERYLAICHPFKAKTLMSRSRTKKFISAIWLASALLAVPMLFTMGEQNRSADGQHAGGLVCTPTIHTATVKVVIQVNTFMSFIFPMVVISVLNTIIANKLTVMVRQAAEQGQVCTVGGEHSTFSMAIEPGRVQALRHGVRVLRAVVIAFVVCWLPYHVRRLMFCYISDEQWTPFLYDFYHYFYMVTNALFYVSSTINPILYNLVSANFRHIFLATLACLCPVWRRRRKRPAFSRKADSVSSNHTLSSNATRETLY

In general, AC50 refers to the concentration at which the activity in the assay is half-maximal. In turn, `O=C(Cn1ccnc1[N+](=O)[O-])NCc1ccccc1` [BENZNIDAZOLE] showed an AC50 in [1] of more than 30 µM.

In assay [1], `NS(=O)(=O)c1cc2c(cc1Cl)NC(CC1CCCC1)NS2(=O)=O` (stereo not given) [CYCLOPENTHIAZIDE] gave an AC50 of more than 30 µM.

Take `CC(C)(N)Cc1ccc(Cl)cc1` [CHLORPHENTERMINE]: the AC50 is more than 10 µM in assay [2]; more than 30 µM in [3]; more than 30 µM in [4]; more than 30 µM at Glucagon receptor; more than 30 µM in assay [5]; more than 30 µM in assay [6]. For the same compound, the figures for the AC50 (at D(1A) dopamine receptor; in assay [7]) were more than 10 µM and more than 30 µM, respectively.

For `COCC1=C(C(=O)OC(C)OC(=O)OC(C)C)N2C(=O)[C@@H](NC(=O)/C(=N\OC)c3csc(N)n3)[C@H]2SC1` (stereo not given in full) [CEFPODOXIME PROXETIL], in assay [1], the AC50 is more than 30 µM.

For the compound `Nc1nc(-n2cc(C(=O)O)c(=O)c3cc(F)c(N4CC(O)C4)c(Cl)c32)c(F)cc1F` [DELAFLOXACIN], the AC50 in assay [1] was more than 30 µM.

For `O=P(O)(O)C(O)(Cc1cccnc1)P(=O)(O)O` [RISEDRONIC ACID], the AC50 was more than 10 µM in assay [2]; more than 30 µM in assay [3]; more than 30 µM in [4]; more than 30 µM on Glucagon receptor; more than 30 µM in assay [5]; more than 30 µM in assay [6]. Besides, the results for the AC50 (on Substance-P receptor; at D(1A) dopamine receptor; in assay [7]) were more than 10 µM, more than 10 µM and more than 30 µM, respectively.

In turn, `CN1C(=O)N(C)C2C1N(C)C(=O)N2C` (stereo not given) [MEBICAR] had an AC50 in assay [1] of more than 30 µM.

On to `CN(C)CCCN1c2ccccc2Sc2ccccc21` [PROMAZINE], for which the AC50 in [2] was more than 10 µM; in [3] it was more than 30 µM; in assay [4] it was more than 30 µM; on Glucagon receptor, more than 30 µM; in [5] it was more than 30 µM; in assay [6], more than 30 µM. In addition, the results for the AC50 (on Substance-P receptor; on D(1A) dopamine receptor; in [7]) were more than 10 µM, 1.08 µM and more than 30 µM, respectively.

In assay [1], `CC(C)=CCC1C(=O)N(c2ccccc2)N(c2ccccc2)C1=O` [FEPRAZONE] returned an AC50 of more than 30 µM.

As to `O=C1CCC(N2C(=O)c3ccccc3C2=O)C(=O)N1` (stereo not given) [THALIDOMIDE], the AC50 in assay [2] is more than 10 µM; in assay [3], more than 30 µM; in assay [4], more than 30 µM; on Glucagon receptor it was more than 30 µM; in assay [5] it was more than 30 µM; in [6], more than 30 µM. Besides, the AC50 on Substance-P receptor is more than 10 µM; on D(1A) dopamine receptor, more than 10 µM; in [7] it was more than 30 µM.

As for `O=C(O)CCn1c2c(c3ccccc31)C[C@H](NS(=O)(=O)c1ccc(F)cc1)CC2` [RAMATROBAN], the half-maximal activity concentration (AC50) on Glucagon receptor was more than 10 µM; in [6], more than 10 µM; at D(1A) dopamine receptor it was 6.01 µM; in [7] it was more than 10 µM.

`N/N=c1/cc2c(n[nH]1)CCN(C(=O)c1ccccc1)C2` [ENDRALAZINE] came in with an AC50 in [1] of more than 30 µM.

For `C=C1C[C@@H]2[C@H](CC[C@]3(C)C(=O)CC[C@@H]23)[C@@]2(C)C=CC(=O)C=C12` [EXEMESTANE], the AC50 in assay [2] is more than 10 µM; in [3], more than 30 µM; in [4] it was more than 30 µM; on Glucagon receptor, more than 30 µM; in assay [5], more than 30 µM; in [6] it was more than 30 µM. Also, the AC50 in assay [7] is more than 30 µM.

`CO/N=C(\C(=O)N[C@@H]1C(=O)N2C(C(=O)OCOC(=O)C(C)(C)C)=C(C)CS[C@H]12)c1csc(N)n1` returned a half-maximal activity concentration (AC50) in assay [1] of more than 30 µM.

Regarding `O=C(Nc1ccccc1)OCC(CN1CCCCC1)OC(=O)Nc1ccccc1` (stereo not given) [DIPERODON], the AC50 is more than 10 µM in assay [2]; more than 30 µM in [3]; more than 30 µM in assay [4]; more than 30 µM at Glucagon receptor; more than 30 µM in assay [5]; more than 30 µM in assay [6]. The AC50 at Substance-P receptor is more than 10 µM; at D(1A) dopamine receptor, more than 10 µM; in assay [7], more than 30 µM.

In [1], `NC(=O)c1cccc2cn(-c3ccc([C@@H]4CCCNC4)cc3)nc12` [NIRAPARIB] gave an AC50 of 15.3 µM.

In the case of `Nc1ccc(/N=N/c2ccccc2)c(N)n1` [PHENAZOPYRIDINE], in assay [1], the AC50 was more than 30 µM.
